Measurements as given in PubChem BioAssay (NCI).
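Cells were grown in 96-well plates and exposed to each compound for 48 hours at five concentrations; endpoints were interpolated linearly between bracketing concentrations, or set to the highest concentration if not reached. TGI: total growth inhibition.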

Columns and labels:
Experiment in all cases: NCI tumour cell line growth inhibition, 48 h
786-0 renal = system: 786-0 renal
BT-549 breast = system: BT-549 breast
CAKI-1 renal = system: CAKI-1 renal
CCRF-CEM leukemia = system: CCRF-CEM leukemia
EKVX NSCLC = system: EKVX NSCLC
HCT-116 colon = system: HCT-116 colon
HOP-62 NSCLC = system: HOP-62 NSCLC
HOP-92 NSCLC = system: HOP-92 NSCLC
MALME-3M melanoma = system: MALME-3M melanoma
MDA-MB-231 breast = system: MDA-MB-231 breast
NCI-H23 lung = system: NCI-H23 lung
NCI-H522 lung = system: NCI-H522 lung
SF-539 CNS = system: SF-539 CNS
SK-MEL-28 melanoma = system: SK-MEL-28 melanoma
SN12C renal = system: SN12C renal
SR leukemia = system: SR leukemia
U251 CNS = system: U251 CNS
UO-31 renal = system: UO-31 renal
A498 renal = system: A498 renal

SMILES | TGI (786-0 renal) | TGI (BT-549 breast) | TGI (CAKI-1 renal) | TGI (CCRF-CEM leukemia) | TGI (EKVX NSCLC) | TGI (HCT-116 colon) | TGI (HOP-62 NSCLC) | TGI (HOP-92 NSCLC) | TGI (MALME-3M melanoma) | TGI (MDA-MB-231 breast) | TGI (NCI-H23 lung) | TGI (NCI-H522 lung) | TGI (SF-539 CNS) | TGI (SK-MEL-28 melanoma) | TGI (SN12C renal) | TGI (SR leukemia) | TGI (U251 CNS) | TGI (UO-31 renal) | TGI (A498 renal)
COC(=O)C(C(=O)C(=O)Nc1ccccc1C#N)c1nc2ccc([N+](=O)[O-])cc2[nH]c1=O (stereo unspecified) | > 100 µM | > 100 µM | > 100 µM | > 100 µM | > 100 µM | > 100 µM | > 100 µM | > 100 µM | > 100 µM | > 100 µM | > 100 µM | > 100 µM | > 100 µM | > 100 µM | > 100 µM | > 100 µM | > 100 µM | > 100 µM | –
NNC1=N/C(=C\c2ccco2)C(=O)N1 | > 100 µM | > 100 µM | > 100 µM | – | > 100 µM | > 100 µM | > 100 µM | – | > 100 µM | > 100 µM | > 100 µM | > 100 µM | > 100 µM | > 100 µM | > 100 µM | > 100 µM | > 100 µM | > 100 µM | > 100 µM
CCN1C(=O)/C(=C2\SC(c3ccccc3)(c3ccccc3)c3ccccc32)SC1=S | > 100 µM | > 100 µM | – | > 100 µM | > 100 µM | > 100 µM | 68.1 µM | 82.4 µM | > 100 µM | > 100 µM | > 100 µM | > 100 µM | > 100 µM | > 100 µM | > 100 µM | 42.9 µM | > 100 µM | > 100 µM | > 100 µM
CC(=O)Nc1ccc(-c2nc3ccccc3s2)cc1C | > 100 µM | > 100 µM | 59 µM | > 100 µM | > 100 µM | > 100 µM | > 100 µM | > 100 µM | – | > 100 µM | > 100 µM | – | > 100 µM | > 100 µM | – | > 100 µM | > 100 µM | > 100 µM | 21.6 µM
CSc1c(C(=O)Nc2ccc(C)cc2)c(N)n(N)c(=O)c1C#N | > 100 µM | > 100 µM | > 100 µM | > 100 µM | > 100 µM | > 100 µM | – | – | > 100 µM | > 100 µM | > 100 µM | > 100 µM | > 100 µM | > 100 µM | > 100 µM | > 100 µM | > 100 µM | > 100 µM | > 100 µM
CCOC(=O)CSc1nnc(CSc2nc(-c3ccccc3)c(-c3ccccc3)[nH]2)n1-c1ccccc1 | > 62.9 µM | > 100 µM | – | > 100 µM | > 100 µM | > 100 µM | > 100 µM | > 100 µM | > 100 µM | > 100 µM | > 100 µM | > 100 µM | 41.6 µM | > 100 µM | 34.9 µM | > 100 µM | > 100 µM | 38.9 µM | 33.2 µM
COc1cc(C(=O)C2C(=O)c3ccccc3C2C2(O)c3ccccc3CC2C(O)c2cc(OC)c(OC)c(OC)c2)cc(OC)c1OC (stereo unspecified) | > 100 µM | > 100 µM | > 100 µM | – | > 100 µM | > 100 µM | > 100 µM | > 100 µM | > 100 µM | > 100 µM | > 100 µM | – | > 100 µM | > 100 µM | > 100 µM | > 100 µM | > 100 µM | > 100 µM | > 100 µM
Cc1ccc(N=C2S/C(=C3/CCC=C3N3CCOCC3)N(c3ccc(Cl)cc3)C2=Nc2ccc(C)cc2)cc1 | > 100 µM | > 100 µM | – | – | > 100 µM | > 100 µM | > 100 µM | > 100 µM | > 100 µM | > 100 µM | > 100 µM | – | – | > 100 µM | > 100 µM | > 100 µM | > 100 µM | > 100 µM | > 100 µM
Cc1[nH]n(C(=N)N)c(=O)c1CCO | 3.08 µM | > 100 µM | > 100 µM | > 100 µM | – | > 100 µM | > 100 µM | > 100 µM | > 100 µM | > 100 µM | > 100 µM | > 100 µM | > 100 µM | > 100 µM | > 100 µM | > 100 µM | > 100 µM | > 100 µM | > 100 µM
Cc1cc(C)c2c(c1)C1=NCCN1C2(O)c1ccc(Cl)cc1 (stereo unspecified) | 29.6 µM | 26.4 µM | 31.5 µM | 54.7 µM | 33.3 µM | 26 µM | 29.3 µM | 28.6 µM | – | 28.2 µM | 33.1 µM | – | 29 µM | 31 µM | 30.3 µM | 62 µM | 32.3 µM | 26.9 µM | 28.6 µM
